Literature values as cited in patent US20040028754A1, “Use of phyllanthus component for the treatment or prophylaxis of infections triggered by flaviviridae” (priority 2000, published 2004).

What was measured:
[1] = tested on: Ca^2+- and phospholipid-dependent protein kinase C (PKC) of the rat brain
[2] = biological target: T1, cAMP-dependent protein kinase of the rat liver (Rattus norvegicus, UniProt P27791)
T1 construct: the cAMP-dependent protein kinase of the rat liver; from tissue; host or cells: rat liver

[3] = tested on: Ca^2+-dependent protein kinase of the wheat embryo
Staphylococcus aureus = conditions: 0.1 ml; extract 50 mg/ml, streptomycin 10 mg/ml
Bacillus subtilis = conditions: 0.1 ml; extract 50 mg/ml, streptomycin 10 mg/ml

O=C1OC2C3OC(=O)C4=CC(=O)C5(O)Oc6c(O)c(O)cc(c6C4C5(O)O)C(=O)OC2C(OC(=O)c2cc(O)c(O)c(O)c2)OC3COC(=O)c2cc(O)c(O)c3c2C2C1=CC(=O)C(O)(O3)C2(O)O (centres unmarked) [amariin]
inhibition of protein kinase [1]: most effective
inhibition of protein kinase [2]: most effective
inhibition of protein kinase [3]: most effective

[H]/N=C(/N)N[C@H]1[C@H](O)[C@@H](O)[C@H](O[C@@H]2O[C@@H](C)[C@](O)(C=O)[C@H]2O[C@@H]2O[C@@H](CO)[C@H](O)[C@@H](O)[C@@H]2NC)[C@@H](N/C(N)=N\[H])[C@@H]1O [streptomycin]
inhibition zone (Staphylococcus aureus): 35 mm
inhibition zone (Bacillus subtilis): 35 mm

geraiin
inhibition of protein kinase [1]: most effective
inhibition of protein kinase [2]: most effective
inhibition of protein kinase [3]: most effective
